Laboratory results published in PMC9862037, “Interactions of Mycotoxin Alternariol with Cytochrome P450 Enzymes and OATP Transporters” (Metabolites, 2022).
Where two headings read alike, the source gives them in different places.

Tests used:
[1] = system: CYP3A4; details: read-out: IC50, CYP3A4-catalyzed midazolam hydroxylation, cited from earlier work
[2] = system: CYP2D6; details: read-out: IC50, CYP2D6-mediated dextromethorphan O-demethylation; cited from earlier work
[3] = system: CYP2C9; details: read-out: IC50, CYP2C9-catalyzed tolbutamide hydroxylation; cited from earlier work
[4] = target: OATP1B1 (Homo sapiens, UniProt Q9Y6L6); type: cell-based; design: expressed in transfected cells
Method: The assays were performed as described recently. Cells were seeded on 96-well plates one day prior to the measurement. After washing three times with PBS at room temperature, cells were incubated for 15 min with 8-acetoxy-1,3,6-trisulfopyrene (Ace, 5 µM). After this “preloading” stage, the supernatant was removed, and the cells were incubated with the same amount of the probe (Counterflow assay) or without the probe in buffer pH 5.5 (Efflux assay) in the absence and the presence of AOH for further 20 min. Fixed concentrations of AOH were selected based on the IC50 values determined in the transport inhibition assay. […]. Cells were washed three times with ice-cold PBS, then NaOH solution (0.1 N, 200 µL/well) was added. After 20 min, fluorescence was measured with an Enspire plate reader in Ex/Em wavelengths 460/510 nm. Bottom reading was applied with two horizontal (X) and two vertical (Y) points, measurement height was 3 mm with 200 flashes. Fluorescence was compared to the preloaded control incubated with Ace alone, considered as 100%.

Sequence of OATP1B1 (Q9Y6L6 whole entry): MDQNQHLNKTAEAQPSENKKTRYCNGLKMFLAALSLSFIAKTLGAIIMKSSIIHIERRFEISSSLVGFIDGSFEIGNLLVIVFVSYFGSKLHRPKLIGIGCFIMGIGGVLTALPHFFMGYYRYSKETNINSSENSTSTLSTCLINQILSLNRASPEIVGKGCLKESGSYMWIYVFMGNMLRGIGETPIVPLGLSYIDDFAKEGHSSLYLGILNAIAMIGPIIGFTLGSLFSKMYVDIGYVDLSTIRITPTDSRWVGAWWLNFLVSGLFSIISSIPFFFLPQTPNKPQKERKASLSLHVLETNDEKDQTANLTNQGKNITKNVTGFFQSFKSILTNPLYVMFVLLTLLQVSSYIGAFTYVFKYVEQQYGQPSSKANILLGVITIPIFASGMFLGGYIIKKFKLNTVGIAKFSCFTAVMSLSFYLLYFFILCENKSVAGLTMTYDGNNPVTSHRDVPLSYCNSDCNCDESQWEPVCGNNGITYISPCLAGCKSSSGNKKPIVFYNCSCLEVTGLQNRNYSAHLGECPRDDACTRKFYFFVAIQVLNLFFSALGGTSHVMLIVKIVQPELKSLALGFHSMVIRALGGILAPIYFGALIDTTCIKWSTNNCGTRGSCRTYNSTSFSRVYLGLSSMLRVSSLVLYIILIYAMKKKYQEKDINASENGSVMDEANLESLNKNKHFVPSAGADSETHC

CC(=O)OC[C@]12C[C@H](OC(=O)CC(C)C)C(C)=C[C@H]1O[C@@H]1[C@H](O)[C@@H](OC(C)=O)[C@@]2(C)[C@]12CO2 [T-2 toxin]
IC50 [1]: 27 µM

C[C@H]1CCCC(=O)CCC/C=C/c2cc(O)cc(O)c2C(=O)O1 [Zearalenone]
IC50 [2]: 55.4 µM
IC50 [3]: 0.54 µM
IC50 ([1]; in vitro): 1.1 µM

C=O [formaldehyde]
fluorescence signal in the CCF [4]: no change in the fluorescence
effect on efflux of the probe ([4]; pH 5.5): blocks the efflux
